Where “and” joins values, the source holds several entries; their conditions need not be identical. Identical values can stand only once.
Legend:
[1] = Stability of isolated 9 in deuterated solvents (1H NMR, LC-MS); assay type: physicochemical; conditions: resuspended in CDCl3 or CD3OD, 1H NMR over time
Protocol: Also, on drying of our sample from CDCl3, we noted a colour change from yellow/brown to red. Loss of our compound was confirmed through LC–MS analysis. However, we observed that during the course of purification, a compound pertaining to an oxidation of 9 ([…]; equal to 9 + oxygen) accumulated to high concentrations. […] As such, we purified this compound using the same strategy outlined above (yield of about 3 mg) and determined a putative structure (proposed 9′) through NMR analysis. For 9′, deuterated ACN (CD3CN) was used as a solvent and spectra were collected on a Varian Inova 600 MHz NMR spectrometer at room temperature (Supplementary Figs. 12–18).

[2] = molecular target: T1, PtCAL-1a/PtCAL-2a (Phlegmariurus tetrastichus, UniProt P0DXL1+P0DXL3); assay: In vitro reactions with apoplastic PtCAL-1a/PtCAL-2a (formation of 9, decarboxylation of 3, Zn chelator); assay type: biochemical
T1 construct: N-terminal signal peptide[58], which would be cleaved during processing and trafficking of these proteins; made in house; host or cells: Nicotiana benthamiana leaves (Agrobacterium transient co-expression, pEAQ-HT), concentrated apoplast extract
T1 sequence (P0DXL1 22-280): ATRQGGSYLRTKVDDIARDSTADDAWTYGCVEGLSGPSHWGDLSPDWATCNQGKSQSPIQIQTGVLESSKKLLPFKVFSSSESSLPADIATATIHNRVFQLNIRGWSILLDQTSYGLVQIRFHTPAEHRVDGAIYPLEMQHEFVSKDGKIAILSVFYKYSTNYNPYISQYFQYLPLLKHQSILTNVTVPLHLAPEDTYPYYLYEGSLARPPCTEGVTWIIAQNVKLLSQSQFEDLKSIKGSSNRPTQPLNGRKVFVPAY
T1 sequence (P0DXL3 24-284): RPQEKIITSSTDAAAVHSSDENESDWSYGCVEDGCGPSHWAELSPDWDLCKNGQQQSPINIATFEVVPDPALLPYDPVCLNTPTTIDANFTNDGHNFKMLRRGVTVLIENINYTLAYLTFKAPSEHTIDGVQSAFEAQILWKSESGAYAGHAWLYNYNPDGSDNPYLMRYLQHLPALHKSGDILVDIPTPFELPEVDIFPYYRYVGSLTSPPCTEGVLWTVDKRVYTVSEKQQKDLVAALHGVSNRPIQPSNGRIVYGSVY
Excerpt: The three CAL proteins identified in this study have predicted N-terminal signal peptides, which were identified using the TargetP-2.0 server (https://services.healthtech.dtu.dk/service.php?TargetP-2.0)[58]. […] To assess this possibility, CAL genes with or without C-terminal 6xHis tags were transiently expressed in N. benthamiana, as described above. Each CAL gene was expressed individually; also, PtCAL-1a and PtCAL-2a were transiently co-expressed in the same leaf because we had found them to cofunction in Lycopodium alkaloid biosynthesis. At 4 days after Agrobacterium infiltration, apoplast protein extracts were isolated using the infiltration–centrifugation method, much as previously described. Two leaves per reaction were excised from the plant and submerged in ice-cold apoplast extraction buffer (100 mM MES, 300 mM NaCl, pH 5.5) in an open-capped 50 ml Falcon tube and these tubes were placed in a plastic vacuum chamber attached to a Welch Model 2025 vacuum pump. The chamber was brought down to full vacuum and after 2 min at this pressure, the vacuum was slowly released to allow for buffer to infiltrate the leaf apoplastic space. Buffer-infiltrated leaves were carefully removed from the Falcon tubes, blotted dry with paper towels and were then rolled into Parafilm and placed in a plungerless 5 ml plastic syringe. The syringe was placed in a 15 ml Falcon tube and this was then centrifuged at 1,000g and 4 °C for 10 min to collect apoplast extract. The resulting extract was centrifuged at 10,000g and 4 °C for 15 min to pellet any larger cellular debris and the supernatant was concentrated using an Amicon Ultra-4 Centrifugal Filter Unit (10 kDA MWCO, MilliporeSigma UFC501024). Protein concentrations were measured using the BIO-RAD Protein Assay or Bradford assay (Abcam 119216) and adjusted with apoplast extraction buffer to a final concentration between 0.5 and 1.5 mg ml^−1. Aliquots of the extracts were snap frozen in liquid nitrogen and stored at −80 °C.
Reactions with CAL-enriched apoplast were routinely performed in low-pH potassium phosphate buffer (50 mM potassium phosphate, 100 mM NaCl, pH 5.9) at a volume of 20 µl. For PtCAL-1a/PtCAL-2a, these reactions contained approximately 1.4 µg of apoplast protein for each CAL (final concentration of 0.07 µg µl^−1). Control reactions used apoplast from leaves expressing only one CAL or with apoplast generated from GFP-expression N. benthamiana leaves. The requisite substrates for this reaction were generated through the activities of in vitro PtPIKS-1 and PtCYP782C1 enzyme reactions. […]. To generate 3 and 4 as potential substrates, 1 µg of previously purified PtPIKS-1 enzyme[23] and 150 µM 1 and 300 µM malonyl-CoA were added directly to the CAL reaction mixtures. After thorough mixing, reactions were incubated at room temperature. An alternative route for producing 3 and 4 independently of thioester intermediates was achieved by mixing stocks of 1 (10 mM in water) and 2 (10 mM in water; always prepared fresh to minimize compound decomposition) in equal proportion, followed by incubation at room temp for 1–2 h, as these two substrates can non-enzymatically condense to yield 3 (which can spontaneously decarboxylate to produce 4). A 2 µl aliquot of this mixture was then added as a component of the PtCAL-1a/PtCAL-2a enzyme reaction (20 µl total reaction volume) in addition to the PtCYP782C1 microsomal reaction mixture. After predesignated incubation times, reactions were quenched by diluting tenfold into ACN with 0.1% formic acid.
To evaluate the potential decarboxylation of β-keto acid substrates by PtCAL-1/PtCAL-2 and PtCAL-3, only 3 or 2, respectively, were added as substrate. PtCAL-1/PtCAL-2 reactions were quenched by diluting aliquots tenfold into ACN with 0.1% formic acid and were subsequently analysed through HILIC LC–MS. PtCAL-3 reactions were quenched by mixing aliquots with an equal volume of water with 0.2% formic acid and were then analysed through C18 LC–MS. […]

## CC1CC2=NCCCC2=C(CC2CCCCN2)C1 (centres unmarked) [compound 9]
[1]
  stability of isolated compound: relatively unstable
[2]; PtCAL-1a/PtCAL-2a +3, +8, +PDCA, +Zn, 0.5 hrs (ED 4i)
  ion abundance of 9 (m/z 164.1434) over time: 127782 and 135642 and 127803
[2]; PtCAL-1a/PtCAL-2a +3, +8, +PDCA, +Zn, 2 hrs (ED 4i)
  ion abundance of 9 (m/z 164.1434) over time: 473171 and 458012 and 448492
[2]; PtCAL-1a/PtCAL-2a +3, +8, +PDCA, +Zn, 6 hrs (ED 4i)
  ion abundance of 9 (m/z 164.1434) over time: 1066834 and 1174532 and 1104641
[2]; PtCAL-1a/PtCAL-2a +3, +8, +PDCA, +Zn, 24 hrs (ED 4i)
  ion abundance of 9 (m/z 164.1434) over time: 1783309 and 1828274 and 1979732
[2]; PtCAL-1a/PtCAL-2a +3, +8, +PDCA, 0.5 hrs (ED 4i)
  ion abundance of 9 (m/z 164.1434) over time: 126896 and 128709 and 118410
[2]; PtCAL-1a/PtCAL-2a +3, +8, +PDCA, 2 hrs (ED 4i)
  ion abundance of 9 (m/z 164.1434) over time: 460080 and 448051 and 514634
[2]; PtCAL-1a/PtCAL-2a +3, +8, +PDCA, 6 hrs (ED 4i)
  ion abundance of 9 (m/z 164.1434) over time: 1133647 and 1079904 and 1109219
[2]; PtCAL-1a/PtCAL-2a +3, +8, +PDCA, 24 hrs (ED 4i)
  ion abundance of 9 (m/z 164.1434) over time: 1692906 and 1937168 and 1863327
[2]; PtCAL-1a/PtCAL-2a +3, +8, 0.17 hrs
  ion abundance of 9 (m/z 164.1434) over time: 5042 and 4513 and 5355
[2]; PtCAL-1a/PtCAL-2a +3, +8, 0.5 hrs (ED 4i)
  ion abundance of 9 (m/z 164.1434) over time: 123276 and 137673 and 112913
[2]; PtCAL-1a/PtCAL-2a +3, +8, 2 hrs (ED 4i)
  ion abundance of 9 (m/z 164.1434) over time: 446630 and 485400 and 412047
[2]; PtCAL-1a/PtCAL-2a +3, +8, 6 hrs (ED 4i)
  ion abundance of 9 (m/z 164.1434) over time: 1143938 and 1142219 and 1013243
[2]; PtCAL-1a/PtCAL-2a +3, +8, 8.00 hrs
  ion abundance of 9 (m/z 164.1434) over time: 777915 and 631565 and 1080330
[2]; PtCAL-1a/PtCAL-2a +3, +8, 20.00 hrs
  ion abundance of 9 (m/z 164.1434) over time: 2280194 and 1799167 and 2350932
[2]; PtCAL-1a/PtCAL-2a +3, +8, 24.00 hrs
  ion abundance of 9 (m/z 164.1434) over time: 2573277 and 1958546 and 2242168
[2]; PtCAL-1a/PtCAL-2a +3, +8, 24 hrs (ED 4i)
  ion abundance of 9 (m/z 164.1434) over time: 1814580 and 1825623 and 1787378
[2]; PtCAL-1a/PtCAL-2a +3, +8, +PtCAL-3, 0.17 hrs
  ion abundance of 9 (m/z 164.1434) over time: 8935 and 8139 and 7454
[2]; PtCAL-1a/PtCAL-2a +3, +8, +PtCAL-3, 0.50 hrs
  ion abundance of 9 (m/z 164.1434) over time: 15312 and 11348 and 14678
[2]; PtCAL-1a/PtCAL-2a +3, +8, +PtCAL-3, 2.00 hrs
  ion abundance of 9 (m/z 164.1434) over time: 132103 and 73247 and 110763
[2]; PtCAL-1a/PtCAL-2a +3, +8, +PtCAL-3, 4.00 hrs
  ion abundance of 9 (m/z 164.1434) over time: 477805 and 480278 and 470081
[2]; PtCAL-1a/PtCAL-2a +3, +8, +PtCAL-3, 8.00 hrs
  ion abundance of 9 (m/z 164.1434) over time: 1471863 and 934058 and 1569447
[2]; PtCAL-1a/PtCAL-2a +3, +8, +PtCAL-3, 24.00 hrs
  ion abundance of 9 (m/z 164.1434) over time: 2382612 and 1957618 and 2845113
